Patent US10414811B2, “Protease-resistant lipidated GLP-1 analogs” (MEDIMMUNE LIMITED, priority 2015, dated 2019)
Read-outs that look alike come from different tables or passages of the source.

Key:
Format in all cases: cell-based
[1] = target: T1, human GLP-1 receptor (GLP-1R) (Homo sapiens, UniProt P43220); test: cAMP assay, human GLP-1R cells
T1 construct: expressed in transfected cells
Method in brief: (§1)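 Peptide-stimulated cAMP measured by two-step HTRF after a 30 min room-temperature incubation with receptor-expressing cells (hGLP-1R, hGIPR at 1×10^5 cells/ml; hGCGR at 2×10^5 cells/ml). Duplicate dilutions; EC50 from 4-parameter logistic fit of % Delta F.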

[2] = target: T2, human glucagon receptor (GCGR) (Homo sapiens, UniProt P47871); test: cAMP assay, human GCGR cells; settings: cAMP assay
T2 construct: expressed in transfected cells
Method in brief: as §1

[3] = target: T3, human glucose-dependent insulinotropic peptide receptor (GIPR) (Homo sapiens, UniProt P48546); test: cAMP assay, human GIPR cells; settings: cAMP assay
T3 construct: expressed in transfected cells
T3 sequence (P48546 22-466): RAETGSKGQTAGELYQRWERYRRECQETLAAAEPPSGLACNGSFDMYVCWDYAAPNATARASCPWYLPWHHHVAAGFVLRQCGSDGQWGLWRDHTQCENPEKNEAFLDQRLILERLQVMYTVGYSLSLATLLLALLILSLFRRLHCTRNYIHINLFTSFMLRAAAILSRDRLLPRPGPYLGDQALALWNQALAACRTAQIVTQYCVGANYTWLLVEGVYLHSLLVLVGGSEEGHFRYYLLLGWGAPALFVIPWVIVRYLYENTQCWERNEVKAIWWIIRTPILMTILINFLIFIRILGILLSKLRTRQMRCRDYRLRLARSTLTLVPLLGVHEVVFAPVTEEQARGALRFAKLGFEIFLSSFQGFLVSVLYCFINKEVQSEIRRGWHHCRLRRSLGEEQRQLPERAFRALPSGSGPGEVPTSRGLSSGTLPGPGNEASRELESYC
Method in brief: as §1

GLP-1R (INS1e assay) = target: T4, GLP-1R (INS1e assay) (Rattus norvegicus, UniProt P32301); test: INS1e assay, cAMP activity at GLP-1R; settings: mono-lipidated peptides
T4 construct: endogenous in cells; host or cells: INS-1E cells
T4 sequence (P32301 22-463): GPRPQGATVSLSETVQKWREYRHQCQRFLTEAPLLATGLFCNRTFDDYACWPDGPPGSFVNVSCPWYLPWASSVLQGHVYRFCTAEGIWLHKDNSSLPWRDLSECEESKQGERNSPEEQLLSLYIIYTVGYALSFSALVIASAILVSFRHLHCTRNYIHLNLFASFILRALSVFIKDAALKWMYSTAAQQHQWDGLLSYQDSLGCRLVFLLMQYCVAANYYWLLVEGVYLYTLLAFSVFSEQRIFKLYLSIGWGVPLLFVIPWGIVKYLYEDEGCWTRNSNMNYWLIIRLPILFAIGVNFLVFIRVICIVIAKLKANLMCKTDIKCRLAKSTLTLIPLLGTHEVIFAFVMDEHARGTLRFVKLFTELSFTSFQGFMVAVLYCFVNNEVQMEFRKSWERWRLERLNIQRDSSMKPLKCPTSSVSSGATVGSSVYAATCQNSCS
Method in brief: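 cAMP was quantified by two-step HTRF, using anti-cAMP cryptate donor and cAMP-d2 acceptor, each diluted 1/20 in conjugate and lysis buffer. EC50 values of the synthetic peptides were derived from the cAMP readout.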

[4] = cAMP assay, first determination (n1), read-out: Primary assay EC50 GLP-1R n1
[5] = cAMP assay, second determination (n2), read-out: Primary assay EC50 GLP-1R n2
[6] = mean of n1 and n2, read-out: Mean pM GLP-1R
[7] = Primary assay EC50 Gluc-R (n1), first determination (n1)
[8] = read-out: Primary assay EC50 Gluc-R (n2), second determination (n2)
[9] = Primary assay EC50 GIP-R (n1), first determination (n1)
[10] = read-out: Primary assay EC50 GIP-R (n2), second determination (n2)
[11] = mean of n1 and n2, read-out: INS1e assay EC50 Mean pM GLP-1R
[12] = replicate n1, read-out: INS1e assay EC50 GLP-1R n1
[13] = replicate n2, read-out: INS1e assay EC50 GLP-1R n2
[14] = first determination (n1), read-out: Primary assay EC50 Gluc-R (n1)
[15] = second determination (n2), read-out: Primary assay EC50 Gluc-R (n2)
[16] = first determination (n1), read-out: Primary assay EC50 GIP-R (n1)
[17] = second determination (n2), read-out: Primary assay EC50 GIP-R (n2)

T1 sequence (P43220 24-463): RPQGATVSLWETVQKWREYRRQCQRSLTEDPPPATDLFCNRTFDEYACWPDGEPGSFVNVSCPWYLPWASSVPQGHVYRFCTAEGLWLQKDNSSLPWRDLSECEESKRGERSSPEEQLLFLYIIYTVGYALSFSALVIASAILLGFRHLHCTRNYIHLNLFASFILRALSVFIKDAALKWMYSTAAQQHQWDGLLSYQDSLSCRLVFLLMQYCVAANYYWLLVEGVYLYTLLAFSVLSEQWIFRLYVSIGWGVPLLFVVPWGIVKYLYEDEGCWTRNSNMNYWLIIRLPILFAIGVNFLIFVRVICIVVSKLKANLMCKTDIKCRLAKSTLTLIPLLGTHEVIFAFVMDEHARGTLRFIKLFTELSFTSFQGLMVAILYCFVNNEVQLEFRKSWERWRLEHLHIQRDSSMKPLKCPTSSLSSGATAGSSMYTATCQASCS
T2 sequence (P47871 26-477): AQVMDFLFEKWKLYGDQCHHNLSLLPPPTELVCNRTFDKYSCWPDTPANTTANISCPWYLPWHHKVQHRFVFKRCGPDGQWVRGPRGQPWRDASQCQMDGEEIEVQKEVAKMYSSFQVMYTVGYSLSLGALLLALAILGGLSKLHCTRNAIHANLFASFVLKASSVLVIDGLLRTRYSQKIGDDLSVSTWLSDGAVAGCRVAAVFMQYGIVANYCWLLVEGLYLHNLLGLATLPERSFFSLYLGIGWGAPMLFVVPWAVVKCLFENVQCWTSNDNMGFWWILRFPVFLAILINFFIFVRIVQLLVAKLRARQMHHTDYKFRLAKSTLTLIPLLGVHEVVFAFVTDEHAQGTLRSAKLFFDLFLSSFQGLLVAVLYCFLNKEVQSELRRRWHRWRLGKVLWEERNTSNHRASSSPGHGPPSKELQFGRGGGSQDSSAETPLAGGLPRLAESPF

Structure (SMILES)	EC50 [1, 4]	EC50 [1, 5]	EC50 [1, 6]	EC50 [2, 7]	EC50 [2, 8]	EC50 [3, 9]	EC50 [3, 10]	EC50 (GLP-1R (INS1e assay); [11])	EC50 (GLP-1R (INS1e assay); [12])	EC50 (GLP-1R (INS1e assay); [13])	EC50 [2, 14]	EC50 [2, 15]	EC50 [3, 16]	EC50 [3, 17]
CC[C@H](C)[C@H](NC(=O)[C@](C)(Cc1ccccc1)NC(=O)[C@H](CCC(=O)O)NC(=O)[C@H](CCCCNC(=O)CCCCCNC(=O)CCCCCCCCCCCOc1ccc(C(=O)O)cc1)NC(=O)[C@H](C)NC(=O)[C@H](C)NC(=O)[C@H](CCC(=O)O)NC(=O)CNC(=O)[C@H](CCC(=O)O)NC(=O)[C@H](CC(C)C)NC(=O)[C@](C)(Cc1ccccc1)NC(=O)[C@H](CO)NC(=O)[C@](C)(CO)NC(=O)[C@@H](NC(=O)[C@H](CC(=O)O)NC(=O)[C@H](CO)NC(=O)[C@@H](NC(=O)[C@](C)(Cc1ccccc1)NC(=O)[C@H](CO)NC(=O)CNC(=O)[C@H](CCC(=O)O)NC(=O)C(C)(C)NC(=O)[C@@H](N)Cc1c[nH]cn1)[C@@H](C)O)C(C)C)C(=O)N[C@@H](C)C(=O)N[C@@](C)(Cc1ccccc1)C(=O)N[C@H](C(=O)N[C@H](C(=O)N[C@@](C)(CCCCN)C(=O)NCC(=O)NCC(N)=O)C(C)C)C(C)C [compound 140]	5.9 pM	3.9 pM	4.9 pM	≥ 27 nM	≥ 27 nM	≥ 27 nM	≥ 27 nM	30 pM	43.2 pM	16.7 pM	–	–	–	–
CC[C@H](C)[C@H](NC(=O)[C@](C)(Cc1ccccc1)NC(=O)[C@H](CCC(=O)O)NC(=O)[C@H](CCCCNC(=O)CCCCCNC(=O)CCCCCNC(=O)CCCCCCCCCCCOc1ccc(C(=O)O)cc1)NC(=O)[C@H](C)NC(=O)[C@H](C)NC(=O)[C@H](CCC(=O)O)NC(=O)CNC(=O)[C@H](CCC(=O)O)NC(=O)[C@H](CC(C)C)NC(=O)[C@](C)(Cc1ccccc1)NC(=O)[C@H](CO)NC(=O)[C@](C)(CO)NC(=O)[C@@H](NC(=O)[C@H](CC(=O)O)NC(=O)[C@H](CO)NC(=O)[C@@H](NC(=O)[C@](C)(Cc1ccccc1)NC(=O)[C@H](CO)NC(=O)CNC(=O)[C@H](CCC(=O)O)NC(=O)C(C)(C)NC(=O)[C@@H](N)Cc1c[nH]cn1)[C@@H](C)O)C(C)C)C(=O)N[C@@H](C)C(=O)N[C@@](C)(Cc1ccccc1)C(=O)N[C@H](C(=O)N[C@H](C(=O)N[C@@](C)(CCCCN)C(=O)NCC(=O)NCC(N)=O)C(C)C)C(C)C [compound 141]	8.7 pM	5 pM	6.9 pM	≥ 27 nM	≥ 27 nM	≥ 27 nM	≥ 27 nM	41 pM	44.7 pM	36.7 pM	–	–	–	–
CC[C@H](C)[C@H](NC(=O)[C@](C)(Cc1ccccc1)NC(=O)[C@H](CCC(=O)O)NC(=O)[C@H](CCCCNC(=O)COCCOCCNC(=O)CCCCCCCCCCCOc1ccc(C(=O)O)cc1)NC(=O)[C@H](C)NC(=O)[C@H](C)NC(=O)[C@H](CCC(=O)O)NC(=O)CNC(=O)[C@H](CCC(=O)O)NC(=O)[C@H](CC(C)C)NC(=O)[C@](C)(Cc1ccccc1)NC(=O)[C@H](CO)NC(=O)[C@](C)(CO)NC(=O)[C@@H](NC(=O)[C@H](CC(=O)O)NC(=O)[C@H](CO)NC(=O)[C@@H](NC(=O)[C@](C)(Cc1ccccc1)NC(=O)[C@H](CO)NC(=O)CNC(=O)[C@H](CCC(=O)O)NC(=O)C(C)(C)NC(=O)[C@@H](N)Cc1c[nH]cn1)[C@@H](C)O)C(C)C)C(=O)N[C@@H](C)C(=O)N[C@@](C)(Cc1ccccc1)C(=O)N[C@H](C(=O)N[C@H](C(=O)N[C@@](C)(CCCCN)C(=O)NCC(=O)NCC(N)=O)C(C)C)C(C)C [compound 143]	12 pM	5.2 pM	8.6 pM	≥ 27 nM	≥ 27 nM	≥ 27 nM	≥ 27 nM	34 pM	45.1 pM	22.7 pM	–	–	–	–
CCCCCCCCCCCCCCCCCC(=O)NCCOCCOCC(=O)NCCOCCOCC(=O)NCCCC[C@H](NC(=O)[C@H](C)NC(=O)[C@H](C)NC(=O)[C@H](CCC(=O)O)NC(=O)CNC(=O)[C@H](CCC(=O)O)NC(=O)[C@H](CC(C)C)NC(=O)[C@](C)(Cc1ccccc1)NC(=O)[C@H](CO)NC(=O)[C@](C)(CO)NC(=O)[C@@H](NC(=O)[C@H](CC(=O)O)NC(=O)[C@H](CO)NC(=O)[C@@H](NC(=O)[C@](C)(Cc1ccccc1)NC(=O)[C@H](CO)NC(=O)CNC(=O)[C@H](CCC(=O)O)NC(=O)C(C)(C)NC(=O)[C@@H](N)Cc1c[nH]cn1)[C@@H](C)O)C(C)C)C(=O)N[C@@H](CCC(=O)O)C(=O)N[C@@](C)(Cc1ccccc1)C(=O)N[C@H](C(=O)N[C@@H](C)C(=O)N[C@@](C)(Cc1ccccc1)C(=O)N[C@H](C(=O)N[C@H](C(=O)N[C@@](C)(CCCCN)C(=O)NCC(=O)NCC(N)=O)C(C)C)C(C)C)[C@@H](C)CC [compound 153]	7.9 pM	5 pM	6.4 pM	–	–	–	–	58 pM	55 pM	61.2 pM	≥ 27 nM	≥ 27 nM	≥ 27 nM	≥ 27 nM
CCCCCCCCCCCCCCCCCC(=O)NCCOCCOCC(=O)NCCOCCOCC(=O)NCCOCCOCC(=O)NCCCC[C@H](NC(=O)[C@H](C)NC(=O)[C@H](C)NC(=O)[C@H](CCC(=O)O)NC(=O)CNC(=O)[C@H](CCC(=O)O)NC(=O)[C@H](CC(C)C)NC(=O)[C@](C)(Cc1ccccc1)NC(=O)[C@H](CO)NC(=O)[C@](C)(CO)NC(=O)[C@@H](NC(=O)[C@H](CC(=O)O)NC(=O)[C@H](CO)NC(=O)[C@@H](NC(=O)[C@](C)(Cc1ccccc1)NC(=O)[C@H](CO)NC(=O)CNC(=O)[C@H](CCC(=O)O)NC(=O)C(C)(C)NC(=O)[C@@H](N)Cc1c[nH]cn1)[C@@H](C)O)C(C)C)C(=O)N[C@@H](CCC(=O)O)C(=O)N[C@@](C)(Cc1ccccc1)C(=O)N[C@H](C(=O)N[C@@H](C)C(=O)N[C@@](C)(Cc1ccccc1)C(=O)N[C@H](C(=O)N[C@H](C(=O)N[C@@](C)(CCCCN)C(=O)NCC(=O)NCC(N)=O)C(C)C)C(C)C)[C@@H](C)CC [compound 154]	2.8 pM	2.3 pM	2.5 pM	–	–	–	–	25 pM	32.3 pM	17.1 pM	≥ 26 nM	≥ 26 nM	≥ 26 nM	≥ 26 nM
CCCCCCCCCCCC(=O)N[C@@H](CCC(=O)N[C@@H](CCC(=O)N[C@@H](CCC(=O)NCCCC[C@H](NC(=O)[C@@H](NC(=O)[C@@H](NC(=O)[C@](C)(Cc1ccccc1)NC(=O)[C@H](C)NC(=O)[C@@H](NC(=O)[C@](C)(Cc1ccccc1)NC(=O)[C@H](CCC(=O)O)NC(=O)[C@](C)(CCCCN)NC(=O)[C@H](C)NC(=O)[C@H](C)NC(=O)[C@H](CCC(=O)O)NC(=O)CNC(=O)[C@H](CCC(=O)O)NC(=O)[C@H](CC(C)C)NC(=O)[C@](C)(Cc1ccccc1)NC(=O)[C@H](CO)NC(=O)[C@](C)(CO)NC(=O)[C@@H](NC(=O)[C@H](CC(=O)O)NC(=O)[C@H](CO)NC(=O)[C@@H](NC(=O)[C@](C)(Cc1ccccc1)NC(=O)[C@H](CO)NC(=O)CNC(=O)[C@H](CCC(=O)O)NC(=O)C(C)(C)NC(=O)[C@@H](N)Cc1c[nH]cn1)[C@@H](C)O)C(C)C)[C@@H](C)CC)C(C)C)C(C)C)C(=O)NCC(=O)NCC(N)=O)C(=O)O)C(=O)O)C(=O)O [compound 166]	7.2 pM	2.7 pM	4.9 pM	–	–	–	–	460 pM	233 pM	687 pM	≥ 26 nM	≥ 26 nM	≥ 26 nM	≥ 26 nM
